The assay concerns T1, EstD04.
T1 construct: C-terminal His6 tag (kept), pET-21a, E. coli BL21(DE3); catalytic triad Ser160/Glu253/His283; gene PCR-amplified with primers from P. nitroreducens homologue CEG18-11055 (homologue, not this protein)
Description: p-nitrophenol release at […] nm, Lineweaver-Burk. The assay is classed as biochemical, Pseudomonas sp. D01. The settings on record: pH 8.0, 40 °C, 50 mM potassium phosphate; 0.25-2 mM substrate.

Regarding `CCCC(=O)Oc1ccc([N+](=O)[O-])cc1` [p-NPC4, p-nitrophenyl butyrate], the Km is 488 ± 1 µM.

One may read the Km as the substrate concentration at which the rate is half of its maximum.

The values above are taken from publication PMC10385968, “Enzymatic Characterization of a Novel HSL Family IV Esterase EstD04 from Pseudomonas sp. D01 in Mealworm Gut Microbiota” (Molecules, 2023).
